Test results published in the supplement of paper PMC11061612.

What was measured:
Assay in all cases: combination Emax (second highest fraction inhibited in the dose matrix, 72 h); higher = more inhibition; extreme values may be limits of the assay
[1] = system: KARPAS-620 (Plasma Cell Myeloma)
Summary of the method: (§1)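 Bliss excess equals the observed combination effect minus the expected value EA + EB − EA·EB, where EA and EB are the effects of each agent alone. Combination Emax is the second-highest inhibition within the matrix. Inhibition was scaled from CellTiter-Glo 2.0 luminescence, with 0 set by vehicle wells and 1 by blank wells, after 72 hours of two-drug dosing of cells plated in 1536-well plates.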

[2] = system: LU-99A (Non-Small Cell Lung Carcinoma)
Summary of the method: as §1

[3] = system: HT-29 (Colorectal Carcinoma)
Summary of the method: as §1

[4] = system: HCC2157 (Breast Carcinoma)
Summary of the method: as §1

[5] = system: G-292-Clone-A141B1 (Osteosarcoma)
Summary of the method: as §1

[6] = system: CFPAC-1 (Pancreatic Carcinoma)
Summary of the method: as §1

[7] = system: SNU-C5 (Colorectal Carcinoma)
Summary of the method: as §1

[8] = system: SW1783 (Low Grade Glioma)
Summary of the method: as §1

[9] = system: COR-L23 (Non-Small Cell Lung Carcinoma)
Summary of the method: as §1

[10] = system: MDA-MB-231 (Breast Carcinoma)
Summary of the method: as §1

[11] = system: COR-L95 (Small Cell Lung Carcinoma)
Summary of the method: as §1

[12] = system: TGBC24TKB (Biliary Tract Carcinoma)
Summary of the method: as §1

J82 (Bladder Carcinoma) = system: J82 (Bladder Carcinoma)
Summary of the method: as §1

[13] = system: SW1088 (Low Grade Glioma)
Summary of the method: as §1

ES7 (Ewing's Sarcoma) = system: ES7 (Ewing's Sarcoma)
Summary of the method: as §1

CAL-78 (Chondrosarcoma) = system: CAL-78 (Chondrosarcoma)
Summary of the method: as §1

[14] = system: TE-5 (Esophageal Squamous Cell Carcinoma)
Summary of the method: as §1

[15] = system: NALM-6 (B-Lymphoblastic Leukemia)
Summary of the method: as §1

[16] = system: SUIT-2 (Pancreatic Carcinoma)
Summary of the method: as §1

[17] = system: HPAC (Pancreatic Carcinoma)
Summary of the method: as §1

| SMILES | combination Emax [1] | combination Emax [2] | combination Emax [3] | combination Emax [4] | combination Emax [5] | combination Emax [6] | combination Emax [7] | combination Emax [8] | combination Emax [9] | combination Emax [10] | combination Emax [11] | combination Emax [12] | combination Emax (J82 (Bladder Carcinoma)) | combination Emax [13] | combination Emax (ES7 (Ewing's Sarcoma)) | combination Emax (CAL-78 (Chondrosarcoma)) | combination Emax [14] | combination Emax [15] | combination Emax [16] | combination Emax [17] |
| --- | --- | --- | --- | --- | --- | --- | --- | --- | --- | --- | --- | --- | --- | --- | --- | --- | --- | --- | --- | --- |
| CC(=O)c1c(C)c2cnc(Nc3ccc(N4CCNCC4)cn3)nc2n(C2CCCC2)c1=O [Palbociclib] + Cn1cnc2c(F)c(Nc3ccc(Br)cc3Cl)c(C(=O)NOCCO)cc21 [Selumetinib] (first compound max 10 µM, 7x7, partner max 10 µM) | 0.631 | 0.542 | 0.769 | 0.394 | 0.12 | 0.411 | 0.463 | 0.0922 | 0.327 | 0.64 | 0.283 | 0.429 | 0.138 | 0.358 | 0.609 | 0.331 | 0.213 | 0.876 | 0.452 | 0.735 |
| Cn1cnc2c(F)c(Nc3ccc(Br)cc3Cl)c(C(=O)NOCCO)cc21 [Selumetinib] + C[C@@H]1COCCN1C2=NC(=NC(=C2)C3(CC3)[S@](=N)(=O)C)C4=C5C=CNC5=NC=C4 [AZD6738] (first compound max 10 µM, 7x7, partner max 10 µM) | 0.935 | 0.569 | 0.862 | 0.856 | 0.141 | 0.667 | 0.789 | 0.362 | 0.615 | 0.718 | 0.535 | 0.703 | 0.482 | 0.65 | 0.777 | 0.42 | 0.464 | 0.972 | 0.386 | 0.735 |
| CN(C)CCCOc1ccc(-c2ccc3ncc4c(c3c2)n(C2CCOCC2)c(=O)n4C)cn1 [AZD0156] + O=C(c1cc(Cc2n[nH]c(=O)c3ccccc23)ccc1F)N1CCN(C(=O)C2CC2)CC1 [Olaparib] (first compound max 3 µM, partner max 3 µM) | 0.612 | 0.408 | 0.407 | 0.38 | 0.411 | 0.434 | 0.325 | 0.401 | 0.39 | 0.405 | 0.373 | 0.457 | 0.128 | 0.417 | 0.853 | 0.272 | 0.302 | 0.696 | 0.195 | 0.36 |
| COc1cccc(OCCCN)c1-c1cc(Nc2cnc(C#N)cn2)n[nH]1 [Prexasertib] + CCc1c2c(nc3ccc(O)cc13)-c1cc3c(c(=O)n1C2)COC(=O)[C@]3(O)CC [SN-38] (first compound max 1 µM, 7x7, partner max 0.3 µM) | 0.889 | 0.798 | 0.936 | 1 | 0.34 | 0.841 | 0.928 | 0.847 | 0.852 | 0.978 | 0.844 | 0.852 | 0.894 | 0.849 | 1 | 0.906 | 0.818 | 0.983 | 0.713 | 0.887 |
| CN(C)CCCOc1ccc(-c2ccc3ncc4c(c3c2)n(C2CCOCC2)c(=O)n4C)cn1 [AZD0156] + CCN(CCO)CCCOc1ccc2c(Nc3cc(CC(=O)Nc4cccc(F)c4)[nH]n3)ncnc2c1 [AZD2811] (first compound max 1 µM, 7x7, partner max 1 µM) | 0.693 | 0.473 | 0.166 | 0.824 | 0.111 | 0.0885 | 0.224 | 0.0598 | 0.116 | 0.206 | 0.208 | 0.505 | 0.283 | 0.364 | 0.799 | 0.193 | 0.1 | 0.766 | 0.13 | 0.206 |
| NC1(C(=O)N[C@@H](CCO)c2ccc(Cl)cc2)CCN(c2ncnc3[nH]ccc23)CC1 [Capivasertib] + CC(C)n1c(=O)n(C)c2cnc3cc(F)c(-c4ccc(OCCCN5CCCCC5)nc4)cc3c21 [AZD1390] (first compound max 10 µM, 7x7, partner max 0.3 µM) | 0.775 | 0.407 | 0.345 | 0.999 | 0.219 | 0.235 | 0.416 | 0.454 | 0.37 | 0.334 | 0.164 | 0.25 | 0.392 | 0.624 | 0.446 | 0.414 | 0.303 | 0.675 | 0.139 | 0.252 |
| Cc1c2c(nn1C)CSCc1cc(n(C)n1)CSc1cc(c3ccccc3c1)OCCCc1c(C(=O)O)n(C)c3c-2c(Cl)ccc13 [AZD5991] + Cn1cnc2c(F)c(Nc3ccc(Br)cc3Cl)c(C(=O)NOCCO)cc21 [Selumetinib] (first compound max 1 µM, 7x7, partner max 3 µM) | 1 | 0.379 | 0.706 | 0.982 | 0.221 | 0.322 | 0.456 | 0.211 | 0.31 | 0.4 | 0.306 | 0.418 | 0.197 | 0.229 | 0.759 | 0.717 | 0.287 | 0.369 | 0.285 | 0.673 |
| Cc1cc2ncnn2cc1Nc1ncc2c(n1)n(C1CCOCC1)c(=O)n2C [AZD7648] + CCN(CCO)CCCOc1ccc2c(Nc3cc(CC(=O)Nc4cccc(F)c4)[nH]n3)ncnc2c1 [AZD2811] (first compound max 10 µM, 7x7, partner max 1 µM) | 0.554 | 0.53 | 0.265 | 0.783 | 0.291 | 0.281 | 0.295 | 0.293 | 0.0476 | 0.477 | 0.256 | 0.566 | 0.126 | 0.686 | 0.855 | 0.335 | 0.394 | 0.771 | 0.0971 | 0.155 |
| CCN(CCO)CCCOc1ccc2c(Nc3cc(CC(=O)Nc4cccc(F)c4)[nH]n3)ncnc2c1 [AZD2811] + O=C(c1cc(Cc2n[nH]c(=O)c3ccccc23)ccc1F)N1CCN(C(=O)C2CC2)CC1 [Olaparib] (first compound max 1 µM, 7x7, partner max 10 µM) | 0.4 | 0.508 | 0.182 | 0.539 | 0.304 | 0.215 | 0.161 | 0.201 | 0.0799 | 0.275 | 0.436 | 0.564 | 0.0709 | 0.616 | 0.918 | 0.416 | 0.184 | 0.873 | 0.0755 | 0.21 |
| Cc1cc2ncnn2cc1Nc1ncc2c(n1)n(C1CCOCC1)c(=O)n2C [AZD7648] + C[C@@H]1COCCN1C2=NC(=NC(=C2)C3(CC3)[S@](=N)(=O)C)C4=C5C=CNC5=NC=C4 [AZD6738] (first compound max 10 µM, 7x7, partner max 10 µM) | 0.539 | 0.681 | 0.808 | 0.842 | 0.334 | 0.356 | 0.751 | 0.437 | 0.577 | 0.605 | 0.621 | 0.786 | 0.31 | 0.671 | 0.766 | 0.469 | 0.565 | 0.932 | 0.611 | 0.672 |
| CN(CCO)CC[C@H](CSc1ccccc1)Nc1ccc(S(=O)(=O)NC(=O)c2ccc(N3CCC([C@@H](O)c4ccccc4-c4ccc(Cl)cc4)CC3)cc2)cc1S(=O)(=O)C(F)(F)F [AZD4320] + C[C@@H](Nc1cc(F)cc(F)c1)c1cc(C(=O)N(C)C)cc2c(=O)cc(N3CCOCC3)oc12 [AZD8186] (first compound max 1 µM, 7x7, partner max 3 µM) | 1 | 0.765 | 0.278 | 0.978 | 0.799 | 0.424 | 0.399 | 0.663 | 0.332 | 0.808 | 1 | 0.544 | 0.282 | 0.515 | 0.991 | 0.7 | 0.636 | 0.997 | 0.245 | 0.562 |
| CCc1c2c(nc3ccc(O)cc13)-c1cc3c(c(=O)n1C2)COC(=O)[C@]3(O)CC [SN-38] + CN(C)CCCOc1ccc(-c2ccc3ncc4c(c3c2)n(C2CCOCC2)c(=O)n4C)cn1 [AZD0156] (first compound max 0.3 µM, 7x7, partner max 1 µM) | 0.437 | 0.769 | 0.89 | 0.969 | 0.213 | 0.789 | 0.757 | 0.748 | 0.686 | 0.658 | 0.789 | 0.533 | 0.784 | 0.54 | 1 | 0.587 | 0.796 | 1 | 0.744 | 0.38 |
| C[C@@H](c1ccc2nccn2c1)n1nnc2ncc(-c3cnn(C)c3)nc21 [Savolitinib] + CC1(C)CCC(CN2CCN(c3ccc(C(=O)NS(=O)(=O)c4ccc(NCC5CCOCC5)c([N+](=O)[O-])c4)c(Oc4cnc5[nH]ccc5c4)c3)CC2)=C(c2ccc(Cl)cc2)C1 [Venetoclax] (first compound max 1 µM, 7x7, partner max 1 µM) | 0.776 | 0.0525 | 0.149 | 0.186 | 0.0932 | 0.0889 | 0.183 | 0.156 | 0.111 | 0.306 | 0.586 | 0.215 | 0.145 | 0.224 | 0.177 | 0.187 | 0.123 | 0.316 | 0.168 | 0.143 |
